Results reported in doi:10.1101/2025.05.23.655116v1 (biorxiv, 2025).

Target: T1, FBG domain of Tenascin C (FBG-C, FBG-BAP, hFBG-C) (Homo sapiens, UniProt P24821)
T1 sequence (P24821 1976-2193): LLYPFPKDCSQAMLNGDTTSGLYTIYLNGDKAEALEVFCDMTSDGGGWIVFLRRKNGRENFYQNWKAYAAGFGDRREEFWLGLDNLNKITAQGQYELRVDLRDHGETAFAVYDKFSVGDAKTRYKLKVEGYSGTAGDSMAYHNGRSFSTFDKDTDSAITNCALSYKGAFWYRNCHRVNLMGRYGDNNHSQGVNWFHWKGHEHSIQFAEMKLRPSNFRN
Assay: SPR, biotinylated FBG on SA chip
Assay type: binding

Kd: 553 µM
Structure (SMILES): COc1ccc(CN(C)CCc2cnn(C)c2)cc1OC[C@@H](O)CN1CCCCC1 [compound 830, 73494830]
